According to publication PMC9791066, “Investigations into the antibacterial effects and potential mechanism of gambogic acid and neogambogic acid” (Frontiers in Microbiology, 2022):

Tests used:
EfaUPPS (K47A) [1] = biological target: T1, EfaUPPS (K47A) (Enterococcus faecalis, UniProt Q831K9, K53A); assay: UPPS inhibition assay, EfaUPPS K47A mutant; format: biochemical; details: K47A mutant compared with wild-type
T1 construct: His tag; made in house; host or cells: E. coli BL21(DE3)
Protocol: (§1) The EfaUPPS site-directed mutagenesis was generated using QuikChange site-directed mutagenesis kit (Agilent) according to the manufacturer’s instructions. The purification of site-directed mutation was using a similar strategy as described above.
(§2) The UPPS inhibition assay was carried out by measuring the fluorescence of the reaction mixture in a black 96-well microtiter plate (Corning, United States). […] After the indicated incubation period, the reaction was terminated by the addition of 10 μl of 0.5 M EDTA solution. Transferred 50 μl of the reaction mixture into a new 96-well microtiter plate, and quenched with an equal volume of Master Reaction Mix (Pyrophosphate Assay Kit, Sigma-Aldrich, USA) for 30 min. The UPPS inhibitory activity was performed by calculating the fluorescence percentage through determining the fluorescence absorbance of reaction mixture at 316 and 456 nm. Data of UPPS inhibitory activities were plotted versus compound concentrations on a semi-log scale using GraphPad Prism7. All the results were the means of at least three biological replicates.

EfaUPPS (R42A) = biological target: T2, EfaUPPS (R42A) (Enterococcus faecalis, UniProt Q831K9, R48A); assay: UPPS inhibition assay, EfaUPPS R42A mutant; format: biochemical; details: for effect of mutation on inhibitory effect of compound on EfaUPPS enzyme activity: R42A mutant compared with wild-type
T2 construct: His tag; made in house; host or cells: E. coli BL21(DE3)
T2 sequence (Q831K9 whole entry R48A): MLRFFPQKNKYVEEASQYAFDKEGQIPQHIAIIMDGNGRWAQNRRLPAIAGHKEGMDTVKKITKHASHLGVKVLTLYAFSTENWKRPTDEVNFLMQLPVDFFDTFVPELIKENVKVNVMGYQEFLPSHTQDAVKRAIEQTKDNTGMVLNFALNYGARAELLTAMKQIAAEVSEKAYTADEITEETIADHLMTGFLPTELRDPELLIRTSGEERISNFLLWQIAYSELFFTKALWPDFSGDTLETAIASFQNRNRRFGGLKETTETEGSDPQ
Protocol: as §1, §2

EfaUPPS (L91A) = biological target: T3, EfaUPPS (L91A) (Enterococcus faecalis, UniProt Q831K9, L97A); assay: UPPS inhibition assay, EfaUPPS L91A mutant; format: biochemical; details: for effect of mutation on inhibitory effect of compound on EfaUPPS enzyme activity: L91A mutant compared with wild-type; for IC50 fold higher than that of the wild-type: L91A mutant vs wild-type (~3 μM)
T3 construct: His tag; made in house; host or cells: E. coli BL21(DE3)
T3 sequence (Q831K9 whole entry L97A): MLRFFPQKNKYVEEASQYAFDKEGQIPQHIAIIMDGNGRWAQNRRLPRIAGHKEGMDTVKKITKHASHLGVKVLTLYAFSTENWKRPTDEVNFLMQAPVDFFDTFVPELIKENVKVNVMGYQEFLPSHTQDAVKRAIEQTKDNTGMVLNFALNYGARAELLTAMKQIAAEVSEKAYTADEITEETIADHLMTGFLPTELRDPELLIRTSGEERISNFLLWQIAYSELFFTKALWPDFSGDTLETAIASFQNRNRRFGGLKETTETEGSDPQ
Protocol: as §1, §2

E. faecalis ATCC29212 = assay: Bacterial activity (bactericidal) test; format: cell-based, Enterococcus faecalis; details: 2 μg/mL
Protocol: The E. faecalis ATCC29212 were pre-cultured in LB broth at 200 rpm, 37°C overnight, and then the cultures were diluted to 7 × 10^5 CFU/mL by LB broth. A 96-well microtiter plate was inoculated with 200 μl the diluted cultures per well containing 0.1 mg/mL Resazurin with or without 2 μg/mL GA or NGA, followed by incubation at 37°C for 24 h, and then imaged. Three biological replicates were performed for each sample. To visualized the potential bactericidal properties for GA and NGA, the 24 h of GA/NGA-pretreated E. faecalis were coated on the plate to continue cultured overnight. The bactericidal properties of the compounds were determined by counting the bacterial CFUs.

[2] = system: E. coli BAS849 transformed with pQE80L or pQE80L-EfaUPPS variants; assay: Ex-vivo growth inhibition assay; format: cell-based, Escherichia coli; details: compound at 8 μg/mL
Protocol: The E. faecalis ATCC29212 undecaprenyl pyrophosphate synthase genes, and the L91A and L146A mutation fragments were cloned into the BamH I and Hind III digested pQE80Lvector, respectively. The resulting plasmids were transformed into E. coli BAS849, respectively. The strain transformed with the empty vector pQE80L was used as a negative control. A single colony of each transformant was inoculated into LB broth supplemented with 100 μg/mL ampicillin and incubated at 200 rpm, 37°C overnight. After diluted the cultures to 7 × 10^5 CFU/mL by LB broth, 5 μl of each diluted cultures were dripped onto a LB agar plate supplemented with IPTG (0.5 mM), and GA or NGA (8 μg/mL) followed by cultivation at 37°C overnight, and then imaged. In the meantime, another 5 μl of each diluted cultures were diluted in 100 ul LB and coated on the relevant plates to check for bacterial CFUs.

EfaUPPS (K47A) [3] = biological target: T1, EfaUPPS (K47A); assay: Microscale thermophoresis binding assay, EfaUPPS K47A
Protocol: (§3) To characterize the binding affinity between EfaUPPS and GA or NGA, the MST binding assay was performed as previously described ([Lin et al., 2020]). In brief, His-tagged EfaUPPS and site-directed mutated EfaUPPS were labeled with the NT- 647-NHS dye using the Monolith NTTM Protein Labeling Kit RED-NHS (NanoTemper Technologies). Two-fold serially diluted GA or NGA was mixed with 10 nM of labeled EfaUPPS or its derivatives in 10 μl of binding buffer (137 mM NaCl, 2.7 mM KCl, 10 mM Na2HPO4, 1.8 mM KH2PO4, and 0.05% Tween-20, pH 7.8), incubated for 15 min, at room temperature. And then, loaded the mixtures into NT.115 premium coated capillaries (NanoTemper Technologies). MST trace signals were collected from the IR laser on to off for about 20 s, under the 5% LED power and high MST power mode. The change of molecular thermophoresis was monitored by standardized fluorescence value Fnorm, and the binding curve was plotted according to the values of Fnorm. The formed complex affinity was analyzed by MO Affinity Analysis software version 2.3. Apparent dissociation constants (Kd) were calculated using nonlinear fitting assuming one specific binding site with the GraphPad Prism 7 software with the following formula: Y = B^∗Max X/KD + X.
(§4) (^∗ where BMax is the maximum theoretical specific binding; here BMax = 1).

EfaUPPS (I43A) [4] = biological target: T4, EfaUPPS (I43A) (Enterococcus faecalis, UniProt Q831K9, I49A); assay: Microscale thermophoresis binding assay, EfaUPPS I43A
T4 construct: His tag; made in house; host or cells: E. coli BL21(DE3)
T4 sequence (Q831K9 whole entry I49A): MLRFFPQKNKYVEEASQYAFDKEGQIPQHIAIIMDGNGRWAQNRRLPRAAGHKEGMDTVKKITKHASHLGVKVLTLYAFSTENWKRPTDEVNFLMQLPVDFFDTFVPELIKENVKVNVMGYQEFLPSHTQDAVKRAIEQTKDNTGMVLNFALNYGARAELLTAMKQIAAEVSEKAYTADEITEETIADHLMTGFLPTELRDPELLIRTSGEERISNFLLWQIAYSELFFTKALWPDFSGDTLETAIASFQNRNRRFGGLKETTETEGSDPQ
Protocol: as §3, §4

EfaUPPS (I43A) [5] = biological target: T4, EfaUPPS (I43A); assay: UPPS inhibition assay, EfaUPPS I43A mutant; format: biochemical
Protocol: as §1, §2

[6] = overexpression of wild-type EfaUPPS

T1 sequence (Q831K9 whole entry K53A): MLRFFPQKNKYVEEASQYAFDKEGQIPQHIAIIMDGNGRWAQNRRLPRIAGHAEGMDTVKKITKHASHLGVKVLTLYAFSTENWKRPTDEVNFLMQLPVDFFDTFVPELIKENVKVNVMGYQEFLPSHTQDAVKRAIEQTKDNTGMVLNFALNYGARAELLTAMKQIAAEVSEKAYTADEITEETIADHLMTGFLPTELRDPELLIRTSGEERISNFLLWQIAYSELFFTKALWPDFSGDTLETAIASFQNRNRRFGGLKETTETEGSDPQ

| Structure (SMILES) | effect of mutation on inhibitory effect of compound on EfaUPPS enzyme activity (EfaUPPS (K47A) [1]) | effect of mutation on inhibitory effect of compound on EfaUPPS enzyme activity (EfaUPPS (R42A)) | IC50 (EfaUPPS (L91A)) [µM] | effect of mutation on inhibitory effect of compound on EfaUPPS enzyme activity (EfaUPPS (L91A)) | IC50 fold higher than that of the wild-type (EfaUPPS (L91A)) | bactericidal properties (CFUs after 24 h pretreatment) (E. faecalis ATCC29212) | growth of E. coli BAS849 ([2]; empty vector pQE80L) | growth of E. coli BAS849 [2, 6] | growth of E. coli BAS849 ([2]; pQE80L-EfaUPPS L91A) | growth of E. coli BAS849 ([2]; pQE80L-EfaUPPS L146A) | Kd (EfaUPPS (K47A) [3]) [µM] | Kd fold higher than that of the wild-type (EfaUPPS (K47A) [3]; K47A vs wild-type) | IC50 values of K47A mutant (in words) (EfaUPPS (K47A) [1]) | Kd (EfaUPPS (I43A) [4]) [µM] | IC50 (EfaUPPS (R42A)) [µM] | IC50 (EfaUPPS (I43A) [5]) [µM] | effect of mutation on inhibitory effect of compound on EfaUPPS enzyme activity (EfaUPPS (I43A) [5]; I43A mutant compared with wild-type) | IC50 fold higher than that of the wild-type (EfaUPPS (I43A) [5]; I43A mutant vs wild-type (~3 μM)) | Kd fold lower than that of the wild-type (EfaUPPS (K47A) [3]; K47A vs wild-type) |
| --- | --- | --- | --- | --- | --- | --- | --- | --- | --- | --- | --- | --- | --- | --- | --- | --- | --- | --- | --- |
| CC(C)=CCC[C@]1(C)CC(O)c2c(O)c3c(c(CC=C(C)C)c2O1)O[C@]12C(=C[C@@H]4C[C@H]1C(C)(C)O[C@@]2(C/C=C(/C)C(=O)O)C4=O)C3=O (stereo partly drawn) [NGA, neogambogic acid] | significantly reduced | significantly reduced | ~30 | significantly reduced | about 10 fold | potential bactericidal effects | completely inhibited | rescued the cell growth | moderate resistance | moderate resistance | 65.9 ± 25.8 | about 10 fold |  |  |  |  |  |  |  |
| CC(C)=CCC[C@]1(C)C=Cc2c(O)c3c(c(CC=C(C)C)c2O1)O[C@]12C(=C[C@@H]4C[C@H]1C(C)(C)O[C@@]2(C/C=C(/C)C(=O)O)C4=O)C3=O [GA, gambogic acid] | no obvious difference | does not have significant impact | ~30 | significantly decreased | about 10 fold | potential bactericidal effects | completely inhibited | rescued the cell growth | moderate resistance | moderate resistance | 4.61 ± 2.62 |  | increased | > 50000 | 5.39 | ~30 | significantly decreased | about 10 fold | about 6 fold |
